Literature values, collected in US10927398B2, “Compositions for CYP450 phenotyping using saliva samples” (Concordia University, Inc., priority 2015, dated 2021).
Where two headings read alike, the source gives them in different places.

Tests used:
[1] = Table of Exemplary Drugs, cited from earlier work
plasma protein = conditions: cited from earlier work
[2] = cited from earlier work
[3] = Table of Exemplary Drugs, CYP1A2
[4] = Table of Exemplary Drugs, CYP2C19
[5] = Table of Exemplary Drugs, CYP2D6
[6] = Table of Exemplary Drugs, CYP3A4
[7] = Table of Exemplary Drugs, CYP2C9

COc1cc2ncnc(Nc3ccc(F)c(Cl)c3)c2cc1OCCCN1CCOCC1 [Gefitinib (Iressa), Gefitinib]
ORAL BIOAVAILABILITY ([1]; CYP3A4): 60%

CC(C)Cc1ccc(C(C)C(=O)O)cc1 (centres unmarked) [Ibuprofen]
ORAL BIOAVAILABILITY ([1]; CYP2C9): 87-100%

CN(C)CCCN1c2ccccc2CCc2ccccc21 [Imipramine]
ORAL BIOAVAILABILITY ([1]; CYP1A2): 22-77% | ORAL BIOAVAILABILITY ([1]; CYP2C19): 94-96% | ORAL BIOAVAILABILITY ([1]; CYP2D6): 94-96% | PLASMA PROTEIN BINDING (plasma protein; [3]): 60-96% ^ | PLASMA PROTEIN BINDING (plasma protein; [4]): 89% | PLASMA PROTEIN BINDING (plasma protein; [5]): 89%

COc1ccc2c(c1)N(C[C@H](C)CN(C)C)c1ccccc1S2 [Levomepromazine]
ORAL BIOAVAILABILITY ([1]; CYP2D6): 50-60% | HALF-LIFE [2, 5]: 15 h

CN(C)C(=O)C(CCN1CCC(O)(c2ccc(Cl)cc2)CC1)(c1ccccc1)c1ccccc1 [Loperamide (Imodium), Loperamide]
ORAL BIOAVAILABILITY ([1]; CYP3A4): 0.30% | HALF-LIFE [2, 6]: 9 to 14 h

COc1ccc2[nH]cc(CCNC(C)=O)c2c1 [Melatonin]
ORAL BIOAVAILABILITY ([1]; CYP1A2): 3-76% | HALF-LIFE [2, 3]: 0.583 to 0.833 h

CN1CCN2c3ncccc3Cc3ccccc3C2C1 (centres unmarked) [Mirtazapine]
ORAL BIOAVAILABILITY ([1]; CYP2D6): 50%

Cc1cc2c(s1)Nc1ccccc1N=C2N1CCN(C)CC1 [Olanzapine]
ORAL BIOAVAILABILITY ([1]; CYP1A2): 87% | HALF-LIFE [2, 3]: 21 to 54 h

C[C@H](/C=C/[C@H](C)C(C)(C)O)[C@H]1CC[C@H]2/C(=C/C=C3C[C@@H](O)C[C@H](O)C3)CCC[C@]12C [Paricalcitol (Zemplar), Paricalcitol]
ORAL BIOAVAILABILITY ([1]; CYP3A4): 72% | HALF-LIFE [2, 6]: 5 to 7 h

OCCN1CCN(CCCN2c3ccccc3Sc3ccc(Cl)cc32)CC1 [Perphenazine]
ORAL BIOAVAILABILITY ([1]; CYP2D6): 20% | HALF-LIFE [2, 5]: 9 to 12 h

CC(C)NCC(O)COc1cccc2ccccc12 (centres unmarked) [Propranolol]
ORAL BIOAVAILABILITY ([1]; CYP1A2): 100% | ORAL BIOAVAILABILITY ([1]; CYP2C19): 30-70% | ORAL BIOAVAILABILITY ([1]; CYP2D6): 30-70% | HALF-LIFE [2, 3]: 4 h | HALF-LIFE [2, 4]: 3 to 6 h | HALF-LIFE [2, 5]: 3 to 6 h

C=C[C@H]1C[N@@]2CC[C@H]1C[C@@H]2[C@@H](O)c1ccnc2ccc(OC)cc12 [Quinidine]
ORAL BIOAVAILABILITY ([1]; CYP3A4): 70-80% | PLASMA PROTEIN BINDING (plasma protein; [6]): 50-88% ^

C=C[C@H]1C[N@@]2CC[C@H]1C[C@H]2[C@H](O)c1ccnc2ccc(OC)cc12 [Quinine]
ORAL BIOAVAILABILITY ([1]; CYP3A4): 76-88%

CN1CC(=O)N2[C@H](c3ccc4c(c3)OCO4)c3[nH]c4ccccc4c3C[C@@H]2C1=O [Tadalafil (Cialis), Tadalafil]
PLASMA PROTEIN BINDING (plasma protein; [6]): 94% | HALF-LIFE [2, 6]: 15 to 35 h

CC/C(=C(\c1ccccc1)c1ccc(OCCN(C)C)cc1)c1ccccc1 [Tamoxifen]
PLASMA PROTEIN BINDING (plasma protein; [3]): 99% | PLASMA PROTEIN BINDING (plasma protein; [7]): 99% | PLASMA PROTEIN BINDING (plasma protein; [5]): 99% | PLASMA PROTEIN BINDING (plasma protein; [6]): 99% | HALF-LIFE [2, 3]: ~120 to 170 h | HALF-LIFE [2, 7]: 120 to 170 h | HALF-LIFE [2, 5]: 120 to 170 h | HALF-LIFE [2, 6]: 120 to 170 h

COc1cc([C@@H]2c3cc4c(cc3[C@@H](O[C@@H]3O[C@@H]5CO[C@@H](c6cccs6)O[C@H]5[C@H](O)[C@H]3O)[C@H]3COC(=O)[C@H]23)OCO4)cc(OC)c1O [Teniposide]
PLASMA PROTEIN BINDING (plasma protein; [4]): >99% | PLASMA PROTEIN BINDING (plasma protein; [6]): >99% | HALF-LIFE [2, 4]: 5 h | HALF-LIFE [2, 6]: 5 h

CC(C)(C)NC[C@H](O)COc1nsnc1N1CCOCC1 [Timolol]
ORAL BIOAVAILABILITY ([1]; CYP2D6): 90% | PLASMA PROTEIN BINDING (plasma protein; [5]): <10%

Clc1ccc2nsnc2c1NC1=NCCN1 [Tizanidine]
ORAL BIOAVAILABILITY ([1]; CYP1A2): 40% | PLASMA PROTEIN BINDING (plasma protein; [3]): 30%

CC1(C)O[C@@H]2[C@@H](CO[C@@]3(COS(N)(=O)=O)OC(C)(C)O[C@@H]23)O1 [Topiramate (Topamax), Topiramate]
ORAL BIOAVAILABILITY ([1]; CYP3A4): 80% | PLASMA PROTEIN BINDING (plasma protein; [6]): 15-41% ^

Cc1nnc2n1-c1ccc(Cl)cc1C(c1ccccc1Cl)=NC2 [Triazolam (Halcion), Triazolam]
PLASMA PROTEIN BINDING (plasma protein; plasma): 89-94% ^ | HALF-LIFE ([2]; in vivo): 2.3 h

COc1ccc(C(CN(C)C)C2(O)CCCCC2)cc1 (centres unmarked) [Venlafaxine]
ORAL BIOAVAILABILITY ([1]; CYP2D6): 12.6% | PLASMA PROTEIN BINDING (plasma protein; [5]): 27-30% ^

CC[C@]1(O)C[C@@H]2CN(CCc3c([nH]c4ccccc34)[C@@](C(=O)OC)(c3cc4c(cc3OC)N(C)[C@H]3[C@@](O)(C(=O)OC)[C@H](OC(C)=O)[C@]5(CC)C=CCN6CC[C@]43[C@@H]65)C2)C1 [Vinblastine (Velbane), Vinblastine]
PLASMA PROTEIN BINDING (plasma protein; [6]): 98-99.7% ^ | HALF-LIFE [2, 6]: 24.8 h

CC(c1cc2ccccc2s1)N(O)C(N)=O (centres unmarked) [Zileuton]
PLASMA PROTEIN BINDING (plasma protein; [3]): 93% | HALF-LIFE [2, 3]: 2.5 to 3.2 h

O=C1Cc2cc(CCN3CCN(c4nsc5ccccc45)CC3)c(Cl)cc2N1 [Ziprasidone (Geodon), Ziprasidone]
ORAL BIOAVAILABILITY ([1]; CYP3A4): 60% | HALF-LIFE [2, 6]: 7 h

CN(C)CCc1c[nH]c2ccc(C[C@H]3COC(=O)N3)cc12 [Zolmitriptan]
ORAL BIOAVAILABILITY ([1]; CYP1A2): ~40% | PLASMA PROTEIN BINDING (plasma protein; [3]): 25%
